For 16 compounds, GI50 and TGI results are on record in PubChem BioAssay (NCI).

Each structure is given as a SMILES string. Several values for one entry are separate records, joined by “and”; a condition that tells them apart may be missing. Identical values can stand only once.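 Briefly, cells in 96-well plates were exposed to five compound concentrations for 48 h, and endpoints were estimated by linear interpolation. Abbreviation: GI50, concentration required for 50% inhibition of growth. TGI: total growth inhibition.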 Starred links: 1 amine or outer side, 2 acyl side, 3 side chain; linkers in the order of their positions; H or OH if unused. Positions of bridges follow the written chain, without caps; N, C: chain ends. Non-standard residues stand in square brackets, D forms with d. Residues, ends and D or L forms follow the SMILES beside them. Chains are numbered I, II in the order given. Actinocin(1to9) = Cc1c2oc3c(C)ccc(C(=O)[*:2])c3nc-2c(C(=O)[*:1])c(N)c1=O; NMeV = CN[CH](C(=O)O)C(C)C; Sar = CNCC(=O)O Bounds are passed on as bounds.

Among the test systems are UACC-257 melanoma; U251 CNS; HCC-2998 colon; SN12C renal; 786-0 renal; LOX IMVI melanoma; SNB-78 CNS; DLD-1 colon; KM20L2 colon; LXFL 529 NSCLC; DMS 114 small cell lung; DMS 273 small cell lung; M19-MEL melanoma; XF 498 CNS; HOP-18 NSCLC.
Common to all, as to assay: NCI anticancer screen, dose series, 48 h

Turning to `COCCNCc1ccc(-c2cc3nccc(Oc4ccc(NC(=S)NC(=O)Cc5ccc(F)cc5)cc4F)c3s2)nc1`, the GI50 with UACC-257 melanoma is 1.84 µM; in the experiment on U251 CNS, 1.53 µM; with HCC-2998 colon, 4.68 µM. The TGI with UACC-257 melanoma was determined as 3.52 µM; in the experiment on U251 CNS, 2.94 µM; with HCC-2998 colon, 26.9 µM.

As for `CC(C)(C)OC(=O)n1c2ccccc2c2c(=O)nc(N3CCCCC3)sc21`, the TGI in the experiment on SN12C renal, in the experiment with UACC-257 melanoma, in the experiment on U251 CNS, with 786-0 renal and in the experiment with LOX IMVI melanoma was greater than 100 µM in each case.

On to `O=c1ccc2nc3cc(Br)ccc3sc-2c1`, for which the TGI with SN12C renal, with SNB-78 CNS, with UACC-257 melanoma, in the experiment with DLD-1 colon, in the experiment with KM20L2 colon and in the experiment with U251 CNS was greater than 100 µM throughout. Besides, the TGI in the experiment with HCC-2998 colon, in the experiment with LXFL 529 NSCLC, with DMS 114 small cell lung, in the experiment on DMS 273 small cell lung and in the experiment on M19-MEL melanoma was greater than 100 µM each time.

For `OCc1cn(C(c2ccccc2)(c2ccccc2)c2ccccc2)cn1`, the TGI with SN12C renal, in the experiment with UACC-257 melanoma, in the experiment with U251 CNS, in the experiment with HCC-2998 colon and in the experiment with LOX IMVI melanoma was greater than 100 µM throughout.

For the compound `N#CC12Cc3cc4c(cc3-c3cccc(c31)CCN2C(=O)c1ccccc1)OCO4` (stereo not drawn), the TGI in the experiment with SN12C renal, with SNB-78 CNS, in the experiment with XF 498 CNS, in the experiment with UACC-257 melanoma, in the experiment on DLD-1 colon and in the experiment with KM20L2 colon was greater than 100 µM each time. In addition, the TGI with U251 CNS, in the experiment with HCC-2998 colon, in the experiment with LXFL 529 NSCLC, in the experiment with HOP-18 NSCLC, in the experiment with DMS 114 small cell lung and in the experiment on DMS 273 small cell lung was greater than 100 µM each time. In addition, the TGI in the experiment with LOX IMVI melanoma and in the experiment with M19-MEL melanoma was greater than 100 µM throughout.

In the case of `CCOC(=O)C(/C(=N/S(=O)(=O)c1cc(C)c(Cl)cc1[S-])[n+]1ccc(N(C)C)cc1)=C(/O)c1ccc([N+](=O)[O-])cc1`, the TGI is greater than 100 µM in the experiment on SN12C renal, 25.3 µM with UACC-257 melanoma, greater than 100 µM in the experiment on U251 CNS and greater than 100 µM in the experiment on 786-0 renal.

With `O=c1[nH]c2nnc(COc3ccc(Cl)cc3Cl)n2nc1Cc1ccccc1`, the TGI in the experiment with SN12C renal was greater than 100 µM; in the experiment with UACC-257 melanoma, greater than 100 µM; with U251 CNS, 53.1 µM; with 786-0 renal, 43.8 µM; with LOX IMVI melanoma it was greater than 100 µM.

In the case of `C[N+]1(CCC(=O)c2ccco2)CC2CCC(CC2)C1` (stereo not drawn), the TGI in the experiment on SN12C renal, with UACC-257 melanoma, in the experiment on U251 CNS, with 786-0 renal and in the experiment on LOX IMVI melanoma was greater than 100 µM each time.

`OC(c1ccccc1)(c1ccccc1)c1nccc2ccccc12`: the TGI in the experiment on SN12C renal was greater than 100 µM; in the experiment on UACC-257 melanoma, greater than 100 µM; in the experiment with U251 CNS, greater than 100 µM; in the experiment on 786-0 renal, greater than 100 µM; with LOX IMVI melanoma it was 44.3 µM.

Take `CCC(C)C1NC(=O)C(NC(=O)c2c3nc4c(C(=O)NC5C(=O)NC(C(C)CC)C(=O)N6CCCC6C(=O)N(C)CC(=O)N(C)C(C(C)C)C(=O)OC5C)ccc(C)c4oc-3c(C)c(=O)c2N)C(C)OC(=O)C(C(C)C)N(C)C(=O)CN(C)C(=O)C2CCCN2C1=O` (stereo not drawn) (I: TIP[Sar][NMeV] / II: TIP[Sar][NMeV]; ester I:1-I:C, II:1-II:C; linker I:N-II:N via Actinocin(1to9); configuration not given here): the TGI in the experiment on SN12C renal was 0.192 µM and 0.263 µM; in the experiment with UACC-257 melanoma, 0.00726 µM; in the experiment on U251 CNS, 10.9 µM; in the experiment with HCC-2998 colon, 0.0364 µM; in the experiment with 786-0 renal it was 10.4 µM.

On to `CC(ON(C(c1ccccc1)C(C)C)C(C)(C)C)c1ccccc1` (stereo not drawn), for which the TGI in the experiment on SN12C renal came to 32.5 µM; in the experiment with UACC-257 melanoma it was 47.1 µM; with U251 CNS, 30.9 µM; with HCC-2998 colon, 33.7 µM; with 786-0 renal, 30.7 µM; with LOX IMVI melanoma, 35.3 µM.

For the compound `Nc1c(C(=O)O)nnc2cc(Cl)c(Cl)cc12`, the TGI in the experiment on SN12C renal, with UACC-257 melanoma, in the experiment with U251 CNS, with HCC-2998 colon, in the experiment with 786-0 renal and in the experiment with LOX IMVI melanoma was greater than 100 µM in each case.

On to `Cc1c(N2C(=O)/C(=C/c3ccc(Cl)cc3)N=C2c2ccccc2)c(=O)n(-c2ccccc2)n1C`, for which the TGI in the experiment on SN12C renal was greater than 100 µM; with UACC-257 melanoma it was 42.8 µM; in the experiment with U251 CNS it was 96.3 µM; in the experiment with 786-0 renal, greater than 100 µM; in the experiment with LOX IMVI melanoma it was 35.6 µM.

Regarding `COc1ccc2nc3c(C(=O)NCCN(C)C)cccc3cc2c1`, the TGI was determined as 6.93 µM in the experiment on SN12C renal; 18.3 µM with SNB-78 CNS; 4.01 µM in the experiment with XF 498 CNS; 5.01 µM in the experiment with UACC-257 melanoma; 4.36 µM in the experiment with KM20L2 colon; 14.2 µM with U251 CNS. For the same compound, the TGI in the experiment on HCC-2998 colon is 16.2 µM; in the experiment with HOP-18 NSCLC, greater than 100 µM; with DMS 114 small cell lung, 4.48 µM; with DMS 273 small cell lung, 6.15 µM; in the experiment on LOX IMVI melanoma, 3.59 µM.

`Cn1cnc([N+](=O)[O-])c1Sc1nc(N)nc2c1ncn2C1OC(CO)C(O)C1O` (stereo not drawn): the TGI was greater than 100 µM in the experiment with SN12C renal; greater than 100 µM with SNB-78 CNS; greater than 100 µM in the experiment on XF 498 CNS; greater than 100 µM with UACC-257 melanoma; greater than 100 µM in the experiment on DLD-1 colon; 28.8 µM in the experiment with KM20L2 colon. The TGI was greater than 100 µM in the experiment on U251 CNS; 15.3 µM with HCC-2998 colon; greater than 100 µM in the experiment on LXFL 529 NSCLC; greater than 100 µM in the experiment with HOP-18 NSCLC; greater than 100 µM with 786-0 renal; greater than 100 µM in the experiment on DMS 114 small cell lung. Moreover, the figures for the TGI with DMS 273 small cell lung, in the experiment with LOX IMVI melanoma and in the experiment on M19-MEL melanoma were greater than 100 µM, greater than 21.4 µM and greater than 100 µM, respectively.

For the compound `COc1ccc(C2NC(=S)Nc3c2c(=O)oc2c3ccc3ccccc32)cc1` (stereo not drawn), the TGI in the experiment with SN12C renal, in the experiment with UACC-257 melanoma, in the experiment with U251 CNS, in the experiment on 786-0 renal and in the experiment on LOX IMVI melanoma was greater than 100 µM throughout.
